Measurements published in ChEMBL document CHEMBL1938343, “Lead optimisation of selective non-zinc binding inhibitors of MMP13. Part 2” (Bioorg Med Chem Lett, 2012).

Tests used:
[1] = Renal elimination in rat at 2 mg/kg, iv; type: ADME, organism-based; design: dose 2 mg/kg, route intravenous; details: urine, read-out: Ae
[2] = Fraction unbound in human; type: ADME, organism-based; details: in vivo
[3] = Fraction unbound in rat; type: ADME, organism-based; details: in vivo
[4] = Half life in dog at 1 mg/kg, iv and 1 mg/kg, po; type: ADME, organism-based, Canis lupus familiaris; details: in vivo
[5] = molecular target: Matrix metalloproteinase-14 (Homo sapiens, UniProt P50281); test: Inhibition of MMP14 using Mca-Pro-cyclohexyl-Ala-Gly-Nva-His-Ala- Dap(Dnp)-NH2 as substrate by fluorometric analysis
[6] = Oral bioavailability in dog; type: ADME, organism-based, Canis lupus familiaris; details: in vivo
[7] = molecular target: 72 kDa type IV collagenase (Homo sapiens, UniProt P08253); test: Inhibition of MMP2 using Mca-Pro-cyclohexyl-Ala-Gly-Nva-His-Ala- Dap(Dnp)-NH2 as substrate by fluorometric analysis; details: read-out: IC50
[8] = Intrinsic clearance in Sprague-Dawley rat hepatocytes assessed per 10^6 cells; type: ADME, cell-based, Hepatocyte; details: Sprague-Dawley, read-out: CLH
[9] = Clearance in rat at 2 mg/kg, iv; type: ADME, organism-based; design: dose 2 mg/kg, route intravenous; details: in vivo
[10] = molecular target: Matrix metalloproteinase-9 (Homo sapiens, UniProt P14780); test: Inhibition of MMP9 using Mca-Pro-cyclohexyl-Ala-Gly-Nva-His-Ala- Dap(Dnp)-NH2 as substrate by fluorometric analysis
[11] = Half life in rat at 2 mg/kg, iv; type: ADME, organism-based; design: dose 2 mg/kg, route intravenous; details: in vivo
[12] = Apparent permeability across basolateral to apical side in human Caco2 cells at 10 uM; type: ADME, cell-based; details: Caco-2
[13] = Volume of distribution at steady state in dog at 1 mg/kg, iv and 1 mg/kg, po; type: ADME, organism-based, Canis lupus familiaris; details: in vivo, read-out: Vdss
[14] = molecular target: Macrophage metalloelastase (Homo sapiens, UniProt P39900); test: Inhibition of MMP12 using Mca-Pro-cyclohexyl-Ala-Gly-Nva-His-Ala- Dap(Dnp)-NH2 as substrate by fluorometric analysis
[15] = Clearance in dog at 1 mg/kg, iv and 1 mg/kg, po; type: ADME, organism-based, Canis lupus familiaris; details: in vivo
[16] = Fraction unbound in dog; type: ADME, organism-based, Canis lupus familiaris; details: in vivo
Collagenase 3 = Collagenase 3 (Homo sapiens, UniProt P45452); test: Inhibition of recombinant human MMP13 using Mca-Pro-cyclohexyl-Ala-Gly-Nva-His-Ala- Dap(Dnp)-NH2 as substrate by fluorometric analysis; details: read-out: IC50
[17] = Apparent permeability across apical to basolateral side in human Caco2 cells at 10 uM; type: ADME, cell-based; details: Caco-2
[18] = Thermodynamic solubility of the compound; details: Therm_solubility

Macrophage metalloelastase, sequence (P39900 whole entry): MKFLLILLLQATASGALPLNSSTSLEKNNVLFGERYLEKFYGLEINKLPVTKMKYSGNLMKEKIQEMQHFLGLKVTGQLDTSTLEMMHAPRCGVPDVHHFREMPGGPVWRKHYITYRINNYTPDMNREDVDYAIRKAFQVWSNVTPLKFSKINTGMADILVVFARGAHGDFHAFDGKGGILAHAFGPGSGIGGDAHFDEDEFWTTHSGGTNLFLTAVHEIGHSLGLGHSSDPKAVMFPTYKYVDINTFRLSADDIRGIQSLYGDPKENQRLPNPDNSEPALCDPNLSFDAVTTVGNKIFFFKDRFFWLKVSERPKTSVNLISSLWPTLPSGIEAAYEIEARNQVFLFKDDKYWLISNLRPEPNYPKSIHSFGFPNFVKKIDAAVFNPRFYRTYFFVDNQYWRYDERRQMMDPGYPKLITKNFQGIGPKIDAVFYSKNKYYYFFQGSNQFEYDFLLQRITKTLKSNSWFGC
Matrix metalloproteinase-9, sequence (P14780 whole entry): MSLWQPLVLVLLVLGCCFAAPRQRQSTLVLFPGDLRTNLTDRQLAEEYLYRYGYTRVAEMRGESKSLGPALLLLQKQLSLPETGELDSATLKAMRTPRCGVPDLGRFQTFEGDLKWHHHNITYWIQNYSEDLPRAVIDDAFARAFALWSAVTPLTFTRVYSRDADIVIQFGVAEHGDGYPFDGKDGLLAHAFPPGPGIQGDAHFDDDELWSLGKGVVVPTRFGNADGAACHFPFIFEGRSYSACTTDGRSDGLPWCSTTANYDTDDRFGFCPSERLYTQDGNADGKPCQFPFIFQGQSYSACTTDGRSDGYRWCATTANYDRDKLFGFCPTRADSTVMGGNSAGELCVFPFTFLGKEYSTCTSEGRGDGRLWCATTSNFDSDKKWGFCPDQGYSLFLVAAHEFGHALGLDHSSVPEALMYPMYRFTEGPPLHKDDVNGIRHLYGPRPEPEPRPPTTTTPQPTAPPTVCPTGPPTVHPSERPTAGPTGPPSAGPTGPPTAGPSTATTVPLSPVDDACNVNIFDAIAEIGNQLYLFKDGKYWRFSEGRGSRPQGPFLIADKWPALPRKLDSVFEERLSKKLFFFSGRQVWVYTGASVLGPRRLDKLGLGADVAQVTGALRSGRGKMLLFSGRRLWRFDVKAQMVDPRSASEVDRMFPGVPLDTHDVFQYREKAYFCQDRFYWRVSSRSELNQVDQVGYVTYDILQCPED
72 kDa type IV collagenase, sequence (P08253 whole entry): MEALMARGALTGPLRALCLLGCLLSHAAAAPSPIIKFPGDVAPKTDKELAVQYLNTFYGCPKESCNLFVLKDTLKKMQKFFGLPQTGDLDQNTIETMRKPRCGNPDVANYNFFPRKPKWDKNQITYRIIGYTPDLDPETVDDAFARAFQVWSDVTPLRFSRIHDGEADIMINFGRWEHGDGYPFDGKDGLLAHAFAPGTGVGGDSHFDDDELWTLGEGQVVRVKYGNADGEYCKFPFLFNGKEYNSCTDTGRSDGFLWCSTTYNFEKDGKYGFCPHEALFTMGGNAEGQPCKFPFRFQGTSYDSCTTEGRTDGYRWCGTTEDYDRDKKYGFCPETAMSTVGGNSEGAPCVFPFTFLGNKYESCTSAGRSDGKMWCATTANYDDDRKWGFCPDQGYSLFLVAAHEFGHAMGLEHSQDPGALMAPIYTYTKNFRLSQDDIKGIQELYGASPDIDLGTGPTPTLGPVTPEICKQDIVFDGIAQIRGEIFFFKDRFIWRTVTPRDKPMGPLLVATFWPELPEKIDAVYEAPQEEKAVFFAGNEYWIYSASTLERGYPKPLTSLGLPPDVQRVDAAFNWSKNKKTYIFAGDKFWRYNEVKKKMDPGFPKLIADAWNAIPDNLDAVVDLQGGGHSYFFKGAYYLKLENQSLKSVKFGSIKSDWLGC

With `CN1CCC(NC(=O)c2ccc(Oc3ccc(C#C[C@]4(O)CN5CCC4CC5)cc3)cc2)CC1` the dose excreted [1] was < 1%, the fraction unbound [2] was 0.41 and the fraction unbound [3] was 0.73. For the same molecule, the half-life [4] was 1380 min, the pIC50 [5] was < 5 and the IC50 ([5]; read-out: IC50) was > 10 µM. The bioavailability [6] was 47%, the IC50 [7] was 7.3 µM and the hepatocyte CLint [8] was < 2 µL/min/1e6 cells. For the same molecule, the clearance [9] was 16 mL/min/kg, the pIC50 [10] was < 5 and the IC50 ([10]; read-out: IC50) was > 10 µM. For the same molecule, the half-life [11] was 606 min, the Papp B→A at 10 µM [12] was 7.4 ×10⁻⁶ cm/s and the Vd [13] was 6.6 L/kg. The IC50 ([14]; read-out: IC50) was > 8 µM, the IC50 ([14]; read-out: pIC50 (converted)) was 7.94 µM and the clearance [15] was 3.6 mL/min/kg. The fraction unbound [16] was 0.47, the IC50 (Collagenase 3) was 74 nM and the Papp A→B at 10 µM [17] was 0.3 ×10⁻⁶ cm/s. The solubility thermodynamic [18] was > 2000 µM.
